Measurements as given in PubChem BioAssay (NCI).
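A five-concentration, 48-hour dose response in 96-well plates underlies each endpoint, interpolated linearly between surrounding concentrations. Definition used: TGI = concentration required for complete inhibition of growth.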

Assays:
Experiment in all cases: DTP human tumour cell line panel, 48 h
[1] = test system: ACHN renal
[2] = test system: OVCAR-3 ovarian
[3] = test system: SNB-75 CNS
[4] = test system: HOP-92 NSCLC
[5] = test system: 786-0 renal
[6] = test system: HCT-116 colon
[7] = test system: UACC-62 melanoma
[8] = test system: UACC-257 melanoma
[9] = test system: OVCAR-5 ovarian
[10] = test system: K-562 leukemia
[11] = test system: NCI-H226 lung
[12] = test system: T-47D breast
[13] = test system: HCC-2998 colon
[14] = test system: NCI/ADR-RES ovarian
[15] = test system: SNB-19 CNS
[16] = test system: SK-MEL-28 melanoma
[17] = test system: SF-268 CNS
[18] = test system: CAKI-1 renal
[19] = test system: MCF7 breast
[20] = test system: NCI-H23 lung
[21] = test system: HCT-15 colon
[22] = test system: HOP-62 NSCLC
[23] = test system: A498 renal
[24] = test system: EKVX NSCLC
[25] = test system: OVCAR-4 ovarian
[26] = test system: PC-3 prostate
[27] = test system: MALME-3M melanoma
[28] = test system: COLO 205 colon
[29] = test system: CCRF-CEM leukemia
[30] = test system: A549 NSCLC
[31] = test system: KM12 colon
[32] = test system: SN12C renal
[33] = test system: OVCAR-8 ovarian
[34] = test system: LOX IMVI melanoma
[35] = test system: HT29 colon
[36] = test system: SW-620 colon
[37] = test system: IGROV1 ovarian
[38] = test system: TK-10 renal
[39] = test system: RPMI-8226 leukemia
[40] = test system: UO-31 renal
[41] = test system: MOLT-4 leukemia
[42] = test system: U251 CNS
[43] = test system: SF-539 CNS
[44] = test system: SR leukemia
[45] = test system: RXF 393 renal
[46] = test system: BT-549 breast
[47] = test system: MDA-MB-435
[48] = test system: NCI-H460 lung
[49] = test system: SK-MEL-5 melanoma
[50] = test system: DU-145 prostate
[51] = test system: HS 578T breast
[52] = test system: M14 melanoma
[53] = test system: MDA-N
[54] = test system: NCI-H522 lung
[55] = test system: MDA-MB-231 breast
[56] = test system: SF-295 CNS
[57] = test system: SK-MEL-2 melanoma
[58] = test system: HL-60(TB) leukemia
[59] = test system: SK-OV-3 ovarian

## NC(=S)Nc1[nH]c(=S)nc2c1SC1=N/C(=C\c3ccco3)C(=O)N12
[1]
  TGI: > 100 µM
[2]
  TGI: > 100 µM
[3]
  TGI: > 100 µM
[4]
  TGI: > 100 µM
[5]
  TGI: > 100 µM
[6]
  TGI: > 100 µM
[7]
  TGI: > 100 µM
[8]
  TGI: > 100 µM
[9]
  TGI: > 100 µM
[10]
  TGI: > 66.5 µM
[11]
  TGI: > 100 µM
[12]
  TGI: > 100 µM
[13]
  TGI: > 50.4 µM
[14]
  TGI: > 100 µM
[15]
  TGI: > 100 µM
[16]
  TGI: > 100 µM
[17]
  TGI: > 100 µM
[18]
  TGI: > 100 µM
[19]
  TGI: > 100 µM
[20]
  TGI: > 100 µM
[21]
  TGI: > 100 µM
[22]
  TGI: > 100 µM
[23]
  TGI: > 100 µM
[24]
  TGI: > 100 µM
[25]
  TGI: > 100 µM
[26]
  TGI: > 100 µM
[27]
  TGI: > 83.3 µM
[28]
  TGI: > 100 µM
[29]
  TGI: > 85.4 µM
[30]
  TGI: > 100 µM
[31]
  TGI: > 100 µM
[32]
  TGI: > 100 µM
[33]
  TGI: > 100 µM
[34]
  TGI: > 100 µM
[35]
  TGI: > 100 µM
[36]
  TGI: > 100 µM
[37]
  TGI: > 100 µM
[38]
  TGI: > 100 µM
[39]
  TGI: > 90.6 µM
[40]
  TGI: > 100 µM
[41]
  TGI: > 100 µM
[42]
  TGI: > 100 µM
[43]
  TGI: > 100 µM
[44]
  TGI: > 70.7 µM
[45]
  TGI: > 100 µM
[46]
  TGI: > 100 µM
[47]
  TGI: > 100 µM
[48]
  TGI: > 100 µM
[49]
  TGI: > 100 µM
[50]
  TGI: > 100 µM
[51]
  TGI: > 100 µM
[52]
  TGI: > 100 µM
[53]
  TGI: > 100 µM
[54]
  TGI: > 100 µM
[55]
  TGI: > 100 µM
[56]
  TGI: > 100 µM
[57]
  TGI: > 100 µM
[58]
  TGI: 46.8 µM
[59]
  TGI: > 100 µM

## c1ccc(-c2nc(-c3ccccc3)c(-c3ccccc3)[nH]2)cc1
[1]
  TGI: > 100 µM
[2]
  TGI: > 100 µM
[3]
  TGI: > 100 µM
[4]
  TGI: > 100 µM
[5]
  TGI: > 100 µM
[6]
  TGI: > 100 µM
[7]
  TGI: > 100 µM
[8]
  TGI: > 100 µM
[9]
  TGI: > 100 µM
[11]
  TGI: > 100 µM
[12]
  TGI: > 100 µM
[13]
  TGI: > 100 µM
[14]
  TGI: > 100 µM
[15]
  TGI: > 100 µM
[16]
  TGI: > 100 µM
[17]
  TGI: > 100 µM
[18]
  TGI: > 100 µM
[19]
  TGI: > 100 µM
[20]
  TGI: > 100 µM
[21]
  TGI: > 100 µM
[22]
  TGI: > 100 µM
[23]
  TGI: > 100 µM
[24]
  TGI: > 100 µM
[25]
  TGI: > 100 µM
[26]
  TGI: > 100 µM
[27]
  TGI: > 100 µM
[28]
  TGI: > 100 µM
[29]
  TGI: 36.5 µM
[30]
  TGI: > 100 µM
[31]
  TGI: > 100 µM
[32]
  TGI: > 100 µM
[33]
  TGI: > 100 µM
[34]
  TGI: > 100 µM
[35]
  TGI: > 100 µM
[36]
  TGI: > 100 µM
[37]
  TGI: > 100 µM
[38]
  TGI: > 100 µM
[39]
  TGI: > 72.9 µM
[40]
  TGI: > 100 µM
[41]
  TGI: > 57 µM
[42]
  TGI: > 100 µM
[43]
  TGI: > 100 µM
[44]
  TGI: 46.3 µM
[45]
  TGI: > 100 µM
[46]
  TGI: > 100 µM
[47]
  TGI: > 100 µM
[48]
  TGI: > 100 µM
[49]
  TGI: > 100 µM
[50]
  TGI: > 100 µM
[51]
  TGI: > 82 µM
[52]
  TGI: > 100 µM
[53]
  TGI: > 100 µM
[54]
  TGI: > 100 µM
[55]
  TGI: > 100 µM
[56]
  TGI: > 100 µM
[57]
  TGI: > 100 µM
[58]
  TGI: 36.9 µM
[59]
  TGI: > 100 µM
